According to paper PMC9405973, “Altered Conformational Landscape upon Sensing Guanine Nucleotides in a Disease Mutant of Elongation Factor-like 1 (EFL1) GTPase” (Biomolecules, 2022):
Several values for one entry are separate records, joined by “and”; a condition that tells them apart may be missing. Identical values can stand only once.

Target: T1, Efl1 R1086Q P151L (Saccharomyces cerevisiae, UniProt P53893, P151L/R1086Q)
T1 construct: made in house; host or cells: Saccharomyces cerevisiae
Experiment: ITC: binding of GTP to double mutant Efl1 R1086Q P151L
Conditions: +Mg^2+

T1 sequence (P53893 whole entry P151L/R1086Q): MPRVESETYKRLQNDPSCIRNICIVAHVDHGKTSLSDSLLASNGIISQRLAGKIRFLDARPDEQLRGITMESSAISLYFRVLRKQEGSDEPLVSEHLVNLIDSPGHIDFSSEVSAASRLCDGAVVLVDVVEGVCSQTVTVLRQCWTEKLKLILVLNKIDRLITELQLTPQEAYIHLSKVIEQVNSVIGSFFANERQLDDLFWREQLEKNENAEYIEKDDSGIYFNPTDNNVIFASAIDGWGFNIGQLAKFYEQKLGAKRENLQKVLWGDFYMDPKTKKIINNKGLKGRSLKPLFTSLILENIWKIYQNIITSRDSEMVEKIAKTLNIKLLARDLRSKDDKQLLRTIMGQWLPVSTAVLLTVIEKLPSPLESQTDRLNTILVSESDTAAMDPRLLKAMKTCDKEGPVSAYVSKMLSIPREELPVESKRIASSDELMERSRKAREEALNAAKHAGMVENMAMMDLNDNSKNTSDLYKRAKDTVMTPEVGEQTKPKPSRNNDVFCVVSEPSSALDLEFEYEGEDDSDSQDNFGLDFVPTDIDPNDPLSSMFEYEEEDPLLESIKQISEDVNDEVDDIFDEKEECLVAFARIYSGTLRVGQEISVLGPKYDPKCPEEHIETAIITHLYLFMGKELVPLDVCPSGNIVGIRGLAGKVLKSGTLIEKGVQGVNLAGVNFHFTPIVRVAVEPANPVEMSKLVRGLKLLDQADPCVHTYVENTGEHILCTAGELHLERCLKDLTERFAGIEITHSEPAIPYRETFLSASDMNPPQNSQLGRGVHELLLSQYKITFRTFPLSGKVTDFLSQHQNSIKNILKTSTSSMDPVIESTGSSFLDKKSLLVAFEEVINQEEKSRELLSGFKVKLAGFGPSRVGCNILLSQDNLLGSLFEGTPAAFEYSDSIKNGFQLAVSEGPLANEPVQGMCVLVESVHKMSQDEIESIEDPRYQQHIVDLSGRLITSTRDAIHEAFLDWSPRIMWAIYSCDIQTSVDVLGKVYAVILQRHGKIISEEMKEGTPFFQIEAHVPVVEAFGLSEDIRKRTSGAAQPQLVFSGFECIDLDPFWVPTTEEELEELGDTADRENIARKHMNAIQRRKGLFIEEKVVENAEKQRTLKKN

Nc1nc2c(ncn2[C@@H]2O[C@H](COP(=O)(O)OP(=O)(O)OP(=O)(O)O)[C@@H](O)[C@H]2O)c(=O)[nH]1 [GTP]
-TΔSb (25 °C): -4.8 kcal/mol | ΔGb (25 °C): -6.5 kcal/mol | ΔHb (25 °C): -1.7 ± 0.1 kcal/mol | -TΔSb (30 °C): -4.1 kcal/mol | Nconfres (number of residues changing conformation, absolute value) (30 °C): 19 | Nconfrotb (number of routable bonds changing conformation, absolute value) (30 °C): 19 | ΔCpconf (30 °C): −195 cal mol^−1 K^−1 | ΔCprb (30 °C): −25 cal mol^−1 K^−1 | ΔGb (30 °C): -6.6 kcal/mol | ΔHb (30 °C): -2.5 ± 0.1 kcal/mol | ΔSb (30 °C): 13 cal mol^−1 K^−1 | ΔSconf (30 °C): −31 cal mol^−1 K^−1 | ΔSsolv (30 °C): 53 cal mol^−1 K^−1 | −ΔASAconf (30 °C): 875 Å^2 | -TΔSb (35 °C): -2.8 kcal/mol | ΔGb (35 °C): -6.7 kcal/mol | ΔHb (35 °C): -3.9 ± 0.1 kcal/mol | ΔCpb (from ΔHb at 25–35 °C): −220 ± 35 cal mol^−1 K^−1 and −220 cal mol^−1 K^−1 | Kd (25 °C): 18 ± 3 µM | Kd (30 °C): 17 ± 2 µM | Kd (35 °C): 18 ± 2 µM
